Read-outs that look alike come from different tables or passages of the source.
Experiments:
TRPA1 receptor [1] = target: T1, TRPA1 receptor (Homo sapiens, UniProt O75762); type: cell-based; conditions: percentage of the control (allyl isothiocyanate) calcium count, material dissolved in DMSO at 100 micromolar, HEK cells with TRPA1;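 on TRPA1 Pre-incubation: values above 100 mean more active than the control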
T1 construct: expressed in transfected cells; host or cells: HEK cell line

TRPA1 receptor [2] = target: T1, TRPA1 receptor; assay: cell-based; design: activation: dose or concentration left out as unconfirmed; conditions: for activation at 100 µM: read-out: TRPA1 Direct addition
Experimental: The term “TRPA1 activator” as used herein refers to any component which at a concentration of 1 mM gives a calcium flux count of at least 1000 counts above the background level of calcium present in the cell according to the FLIPR method as discussed herein. The term “count” is defined as the change in fluorescence of the transfected cell lines due to the influx of calcium across the cell membrane, which reacts with the calcium sensitive dye present within the cells.
In order to select TRPA1 agonists that would be preferred for reducing off-tasting chemical components found in oral care compositions, calcium flux receptor activity on the TRPA1 was utilized as the criteria for selection of actives. With allyl isothiocyanate as the TRPA1 positive control, molecules that directly activated the TRPA1 receptor were screened in dimethylsulfoxide (DMSO). Pure molecules of each material were dissolved in DMSO at a concentration of 100 micormolar and then added to an HEK cell line containing the TRPA1 receptor. If they are TRPA1 agonists, they will cause a calcium flux in the cell which fluoresces and may then be measured using a FLIPR machine.

[3] = percentage of the control (allyl isothiocyanate) calcium count, material dissolved in DMSO at 100 micromolar, HEK cells with TRPA1, direct addition
[4] = HEK293, percentage of the control (allyl isothiocyanate) calcium count, material dissolved in DMSO at 100 micromolar, HEK cells with TRPA1, direct addition
[5] = HEK293, percentage of the control (allyl isothiocyanate) calcium count, material dissolved in DMSO at 100 micromolar, HEK cells with TRPA1, pre-incubation, read-out: TRPA1 Pre-incubation

T1 sequence (O75762 whole entry): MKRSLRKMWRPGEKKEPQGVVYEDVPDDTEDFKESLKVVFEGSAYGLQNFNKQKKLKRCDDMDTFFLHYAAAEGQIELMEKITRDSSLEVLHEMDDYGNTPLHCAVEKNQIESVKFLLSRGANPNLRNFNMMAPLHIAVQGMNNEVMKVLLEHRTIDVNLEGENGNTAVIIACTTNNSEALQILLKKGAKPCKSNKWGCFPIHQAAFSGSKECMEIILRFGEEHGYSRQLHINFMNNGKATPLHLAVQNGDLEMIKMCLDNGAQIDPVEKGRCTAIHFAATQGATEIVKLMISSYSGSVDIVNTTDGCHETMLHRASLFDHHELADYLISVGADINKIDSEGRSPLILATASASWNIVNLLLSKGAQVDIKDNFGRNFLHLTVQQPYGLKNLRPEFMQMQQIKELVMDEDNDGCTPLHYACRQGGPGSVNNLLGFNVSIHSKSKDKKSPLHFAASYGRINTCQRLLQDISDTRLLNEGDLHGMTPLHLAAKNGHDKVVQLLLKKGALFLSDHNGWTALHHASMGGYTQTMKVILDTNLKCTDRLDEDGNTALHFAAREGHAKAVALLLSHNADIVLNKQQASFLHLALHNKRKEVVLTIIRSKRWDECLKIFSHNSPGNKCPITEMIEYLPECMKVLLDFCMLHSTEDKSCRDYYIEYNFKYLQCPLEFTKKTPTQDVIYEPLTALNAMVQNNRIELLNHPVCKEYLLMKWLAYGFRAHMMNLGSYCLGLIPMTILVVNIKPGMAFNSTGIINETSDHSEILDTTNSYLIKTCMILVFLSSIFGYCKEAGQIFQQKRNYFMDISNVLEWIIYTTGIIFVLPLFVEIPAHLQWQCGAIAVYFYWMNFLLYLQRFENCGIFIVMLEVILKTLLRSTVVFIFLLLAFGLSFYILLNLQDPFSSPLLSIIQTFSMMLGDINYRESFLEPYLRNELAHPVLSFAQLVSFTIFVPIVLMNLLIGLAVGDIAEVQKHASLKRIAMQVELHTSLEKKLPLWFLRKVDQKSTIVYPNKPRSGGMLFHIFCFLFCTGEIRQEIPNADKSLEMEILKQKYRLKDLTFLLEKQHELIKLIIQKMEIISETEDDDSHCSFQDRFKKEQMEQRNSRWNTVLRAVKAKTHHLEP

Molecule | TRPA1 Pre-incubation (TRPA1 receptor [1]) [%] | TRPA1 Direct addition (TRPA1 receptor [2]; [3]) [%] | activation at 100 µM (TRPA1 receptor [2]; [4]) [%] | activation (TRPA1 receptor [2]; [5]) [%] | other results
CCCCOC(=O)C(C)OC(=O)CCC (centres unmarked) [Butyl Butyryllactate] | 39.69 | −1.54 | – | – | –
CC(=O)/C=C/C1C(C)=CCCC1(C)C (stereo not drawn) [Alpha-Ionone] | 111.19 | −0.9 | – | – | –
C/C=C/C(=O)C1C(C)C=CCC1(C)C (centres unmarked) [delta-damascone] | 138.93 | 0.74 | – | – | –
C=CCCC(=O)/C=C/C1C(C)=CCCC1(C)C (stereo not drawn) [Allyl Alpha-Ionone] | 64.99 | 0.55 | – | – | –
CC(=O)OCCCc1ccccc1 [Phenyl Propyl Acetate] | 69.3 | −9.54 | – | – | –
CC(C)C(=O)O [Isobutryic Acid] | 78.64 | 1.15 | – | – | –
CCCC/C=C/C=C/C=O [trans,trans,-2,4-Nonadienal] | −4.24 | 112.15 | – | – | –
CC/C=C\CCO [Hexen-1-ol] | 80.84 | 0.06 | – | – | –
CCOC(=O)c1ccccc1N [Ethyl Anthrailate] | 61.95 | 39.71 | – | – | –
CCCC(=O)OC(C)c1ccccc1 (centres unmarked) [methyl benzyl butyrate] | 116.22 | −0.34 | – | – | –
2-phenyl propyl tetrahydrofuran | 108.49 | −0.15 | – | – | –
CC(C)=CCC/C(C)=C/C=O [Lemarome] | 41.41 | 80.13 | – | – | –
Rhodinol 70 Spec 59508 | 87.57 | −9.13 | – | – | –
C/C(C=O)=C\c1ccccc1 [Alpha-Methyl-Trans-Cinnamaldehyde] | 72.88 | 37.95 | – | – | –
CCC1OC(C)=C(O)C1=O (centres unmarked) [2-Ethyl-4-Hydroxy-5-Methyl-3(2) Furanone] | 78.56 | −1.06 | – | – | –
[Cl][Sn][Cl] [Stannous Chloride] | 54.35 | −14.1 | – | – | –
CC(=O)/C=C/C1=C(C)CCCC1(C)C [Beta Ionone] | 75.35 | −2.88 | – | – | –
CCOC(=O)CSC [Ethyl Methylthio Acetate] | 55.69 | −0.06 | – | – | –
CCc1nc(C)cs1 [2-Ethyl-4-Methythiazole] | 62.39 | −1.38 | – | – | –
Cc1nc(C)c(C)s1 [,2,4,5-Trimethythiazole] | 64.86 | −1.43 | – | – | –
CC(C)[C@@H]1CC[C@@H](C)CC1=O [L-Menthone] | 70.56 | 4.4 | – | – | –
CC(=O)O[C@@H]1C[C@H](C)CC[C@H]1C(C)C (racemic) [DL-Menthyl Acetate] | 43.32 | −16.09 | – | – | –
4-Ethylguaiacol | 53.53 | 55.61 | – | – | –
Phellandrene | 52.15 | 1.65 | – | – | –

Molecule | TRPA1 Pre-incubation (TRPA1 receptor [1]) [%] | TRPA1 Direct addition (TRPA1 receptor [2]; [3]) [%] | activation at 100 µM (TRPA1 receptor [2]; [4]) [%] | activation (TRPA1 receptor [2]; [5]) [%] | other results
Roselea Spec 59514 | 71.26 | 14.53 | – | – | –
C=C(OCC)C1C(C)(C)CC(=O)CC1(C)C [Kephalis] | 83.88 | −0.23 | – | – | –
CCCC1CCC(=O)O1 (centres unmarked) [Gamma Heptalactone] | 51.03 | 1.18 | – | – | –
CCC(C)C=O (centres unmarked) [2-Methylbutraldehyde] | 35.61 | 81.04 | – | – | –
CC(=O)c1nccs1 [2-Aceylthiazole] | 57.82 | −1.29 | – | – | –
CCCCCC(C)=O [Heptanone] | 69.5 | −0.04 | – | – | –
CCOC(=O)C1OC1(C)c1ccccc1 (centres unmarked) [Ethyl 3-Methyl-3-Phenylglycidate] | 77.42 | 23.6 | – | – | –
CCOC(=O)C1OC1c1ccccc1 (centres unmarked) [Ethyl-3-Phenylglycinate] | 54.22 | 12.13 | – | – | –
C=C(C)C1CC=C(C)C(OC(C)=O)C1 (centres unmarked) [carvyl acetate] | 117.9 | −0.25 | – | – | –
CC(=O)OC1C2(C)CCC(C2)C1(C)C (centres unmarked) [Fenchyl Acetate] | 59.08 | −0.1 | – | – | –
CCCc1ccc(O)c(OC)c1 [Dihydroeugenol] | 103.71 | 0.07 | – | – | –
CC1CCC(C(C)(C)S)C(=O)C1 (centres unmarked) [P-Mentha-8-Thiol-3-one] | 73.82 | 46.29 | – | – | –
Jasmonyl | 68.48 | 7.36 | – | – | –
CCOC(=O)/C=C/c1ccccc1 [Ethyl Cinnemate] | 70.82 | 0.45 | – | – | –
C/C=C/c1ccc(OCC)c(OC)c1 [ethyl isoeugenol] | 111.43 | −0.14 | – | – | –
COc1ccc(C(C)=O)cc1 [Acetanisole] | 83.69 | 0.15 | – | – | –
C=C[C@](C)(O)CCC=C(C)C [L-Linalool] | 65.28 | −11.37 | – | – | –
CCC=CCCOC(=O)CC(C)C [3-Hexenyl-3-Methylbutanoate] | 88.62 | −1.61 | – | – | –
C=CC(C)(O)CCC=C(C)CC (mixture of isomers) [Ethyl Linalool] | 63.35 | −0.1 | – | – | –
CC(=O)O[C@@H]1C[C@H](C)CC[C@H]1C(C)C [Laevo Menthyl Acetate] | 87.91 | −9.39 | – | – | –
CC1=C(CCC(C)O)C(C)(C)CCC1 (stereo not drawn) [Dihydro-beta-ionol] | 97.15 | −0.33 | – | – | –
CC(=O)OCc1ccccc1 [Benzyl Acetate] | – | – | -0.31 | 74.5 | –
CC(=O)[O-].CC(=O)[O-].[Zn+2] [Zinc Acetate] | – | – | – | – | TRPA1 Direct addition (TRPA1 receptor [2]): −0.66%; TRPA1 Pre-incubation (TRPA1 receptor [2]): 21.67%
CC(C)CC(=O)OC1CC2CCC1(C)C2(C)C (centres unmarked) [Bornyl Isovalerate] | – | – | -1.36 | 72.5 | –

Molecule | TRPA1 Pre-incubation (TRPA1 receptor [1]) [%] | TRPA1 Direct addition (TRPA1 receptor [2]; [3]) [%] | activation at 100 µM (TRPA1 receptor [2]; [4]) [%] | activation (TRPA1 receptor [2]; [5]) [%] | other results
CCOC(=O)C(C)O (centres unmarked) [Ethyl Lactate] | – | – | -0.14 | 67.4 | –
CC(C)=CCCC(C)CCOCC=O (centres unmarked) [Citronellyl Oxyacetaldehyde] | – | – | 148 | -1.16 | –
C=C1C2CCC(C2)C1(C)C (centres unmarked) [Camphene] | – | – | -1.43 | 96.5 | –
CC(=O)C(C)O (centres unmarked) [Acetoin] | – | – | 0.29 | 82.6 | –
CC(=O)OCC=Cc1ccccc1 [Cinnamyl Acetate] | – | – | -0.13 | 70.1 | –
CCOC(=O)Cc1ccccc1 [Ethyl Phenylacetate] | – | – | – | – | activation (TRPA1 receptor [2]; HEK293, read-out: TRPA1 Direct addition): -0.28%; activation (TRPA1 receptor [2]; HEK293, read-out: TRPA1 Pre-incubation): 76.2%
O=S(=O)([O-])NC1CCCCC1.[Na+] [Sodium Cyclamate] | – | – | – | – | TRPA1 Direct addition (TRPA1 receptor [2]): −4.07%; TRPA1 Pre-incubation (TRPA1 receptor [2]): 48.66%
CCCC(=O)OCc1ccccc1 [Benzyl Butyrate] | – | – | -3.01 | 58.7 | –
CCC(=O)OCc1ccccc1 [Benzyl Propionate] | – | – | 0.52 | 63 | –
CC1=C(CC=O)C(C)(C)CCC1 [2,6,6-Trimethyl-1-cyclohexene-1-acetaldehyde] | – | – | -0.32 | 106 | –
CC/C=C\CCCCCO [cis-6-Nonen-1-ol] | – | – | 2.38 | 98 | –
2-Methybutyl Isovalerate | – | – | – | – | TRPA1 Direct addition (TRPA1 receptor [2]): −1.49%; TRPA1 Pre-incubation (TRPA1 receptor [2]): 69.9%
CC1=CCC2CC1C2(C)C (stereo not drawn) [Alpha-Pinene] | – | – | -3.07 | 86.6 | –
COc1cccc(OC)c1O [2,6-Dimethoxyphenol] | – | – | -0.24 | 71.6 | –
OCCCc1ccccc1 [3-Phenyl-1-Propanol] | – | – | -0.04 | 92.2 | –
C=CCOC(=O)CCC [Allyl Butyrate] | – | – | 0.02 | 98 | –
CCCCCCOC(=O)CC [Hexyl Propionate] | – | – | -15.9 | 78.9 | –
CC1=C(O)C(=O)OC1C (centres unmarked) [4,5-Dimethyl-3-Hydroxy-2,5-Dihydrofuran-2-one] | – | – | 0.18 | 89.1 | –
CCCCCC/C=C\CO [cis-2-nonen-1-ol] | – | – | -1.09 | 79.2 | –
CC(=O)c1cc(C)sc1C [3-Acetyl-2,5-Dimethylthiophene] | – | – | 5.75 | 64.4 | –
CC1OCCC1=O (centres unmarked) [2-Methyltetrahydrofuran-3-one] | – | – | -1.5 | 77.5 | –
CCCOC(=O)c1ccc(O)cc1 [n-Propyl-4-hydroxybenzoate] | – | – | 173 | 8.13 | –
